Laboratory results reported in publication PMC8198181, “Evaluation of Substituted N-Phenylpiperazine Analogs as D3 vs. D2 Dopamine Receptor Subtype Selective Ligands” (Molecules, 2021).

Columns and labels:
DBA/2J mice = test: DOI-dependent head twitch response inhibition; format: in vivo, mouse; conditions: male DBA/2J mice, 10 mg/kg i.p., DOI 5 mg/kg, 30 min
From the text: First, we have previously published that D3 receptor selective compounds could attenuate a hallucinogen-dependent head twitch response (HTR) in male DBA/2J mice. […] Second, we previously reported that D3 vs. D2 dopamine receptor subtype selective ligands could attenuate L-dopa dependent abnormal involuntary movement (AIM) scores in unilaterally lesioned (hemiparkinsonian) male rats, which is a model for L-dopa-Induced Dyskinesia (LID).
Upon arrival DBA/2J mice (Jackson Labs) were allowed to acclimate for at least one week prior to testing. Mice were housed at ≤4 animals per cage with unlimited access to food and fresh water. The protocol for the HTR assessment has been previously reported. […]
However, a head twitch was defined as a rapid movement of the head, without the involvement of the front paws during grooming. […] At least two observers counted the number of head twitches by visual examination and the number of head twitches was recorded in 5-min cumulative intervals. […]
The effect of Group was assessed using two-way analysis of variance (ANOVA) with Time as the repeated measure. The data was further analyzed at each time point with a one-way ANOVA with Group as the factor followed by planned individual comparisons between different groups using a single degree-of-freedom F test involving the error term from the overall ANOVA when the Time and Group interaction was significant. […]

D3 dopamine receptor = D3 dopamine receptor (Homo sapiens, UniProt P35462); test: β-arrestin binding assay (DiscoverX PathHunter, DRD3-U2OS cells); format: cell-based; parameters: host or cells: U2OS (PathHunter eXpress DRD3-U2OS); conditions: human D3, test compound at 10x Ki, normalized to quinpirole
Chain of D3 dopamine receptor (P35462 whole entry): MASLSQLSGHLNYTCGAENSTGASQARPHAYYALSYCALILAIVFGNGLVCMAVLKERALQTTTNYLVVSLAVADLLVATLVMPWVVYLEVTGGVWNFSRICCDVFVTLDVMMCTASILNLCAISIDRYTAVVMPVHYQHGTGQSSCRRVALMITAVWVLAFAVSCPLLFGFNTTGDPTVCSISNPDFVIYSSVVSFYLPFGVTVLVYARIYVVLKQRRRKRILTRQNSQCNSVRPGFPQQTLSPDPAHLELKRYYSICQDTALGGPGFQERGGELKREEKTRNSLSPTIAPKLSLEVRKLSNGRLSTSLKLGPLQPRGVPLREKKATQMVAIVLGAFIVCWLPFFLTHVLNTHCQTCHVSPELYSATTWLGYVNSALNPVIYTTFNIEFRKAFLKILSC
Method: Quinpirole was used as a reference prototypic full agonist and haloperidol was used as a reference prototypic antagonist.
The β-arrestin binding assay was performed using a DiscoverX Pathhunter® kit according to the manufacturer’s instructions. PathHunter® eXpress β-Arrestin GPCR cells are engineered to co-express the ProLink™ (PK) tagged GPCR and the Enzyme Acceptor (EA) tagged β-Arrestin. Activation of the GPCR-PK induces β-Arrestin-EA recruitment, forcing complementation of the two β-galactosidase enzyme fragments (EA and PK). The resulting functional enzyme hydrolyzes substrate to generate a chemiluminescent signal. DRD3-U2OS cells were seeded according to kit instructions into white plastic 96-well plates (provided with the kit) 48 h prior to the assay in a volume of 100 μL/well using the Cell Plating Reagent (CPR) provided. Vehicle or test drug, diluted in CPR, was added to the designated wells and incubated for 90 min at 37 °C. Working detection solution (a component provided with the kit) was added to the wells and incubated for 1 h in the dark at room temperature. As discussed for the cyclase assay, an Enspire Alpha 2390 Multilabel Reader/Luminometer was used to detect the luminescent signal with haloperidol and quinpirole used as reference antagonist and full agonist, respectively.
Figure 3 Comparison of the Efficacy of Phenylthiophene Analogs for Adenylyl Cyclase Inhibition and β-Arrestin Binding at Human D3 Dopamine Receptors. […] Values were normalized to reference full agonist quinpirole (10,000 nM).

## O=C(NCCCCN1CCN(c2ccccc2F)CC1)c1ccc(-c2ccsc2)cc1 [Compound 6a]
DBA/2J mice
  DOI-dependent head twitch response: attenuated the number of head twitches
D3 dopamine receptor
  efficacy in β-arrestin binding assay: weak partial agonists
